Source: patent US20250099402A1, “COMPOSITIONS OF ASPIRIN AND KETAMINE” (Vitalis Analgesics LLC, priority 2022, published 2025)
Read-outs that look alike come from different tables or passages of the source.

How the values were obtained:
[1] = test system: acute musculoskeletal pain; conditions: data collected from similar trials, same protocol, scales, center and team, agents and doses per Table 5, FIG. 1, cited from earlier work
[2] = in vivo; cited from earlier work
[3] = cited from earlier work
[4] = test system: acute pain due to fracture; conditions: intravenous, public domain data; cited from earlier work
[5] = Ketamine pharmacokinetics and onset of action by route (background); conditions: ketamine given concurrently through the GI
[6] = Compatibility of ketamine and aspirin with spray coating solvents; conditions: alcohol solvents for ketamine, aqueous solutions for aspirin
[7] = cited from earlier work; remark: listed apart in the source

Q: For CN1CC[C@]23c4c5ccc(O)c4O[C@H]2[C@@H](O)C=C[C@H]3[C@H]1C5.O=S(=O)(O)O [oral morphine, Morphine Sulfate], which “reduction of acute musculoskeletal pain, comparator agents” value (“reduction of acute musculoskeletal pain” below) [1] is on record?
A: about 4 points

Q: Which “potency as an anesthetic relative to ketamine” value [2] does the source give for NC1(c2ccccc2Cl)CCCCC1=O (centres unmarked) [norketamine] here?
A: one-third to one-fifth

Q: And the “plasma levels relative to ketamine” value ([3]; following oral administration of ketamine)?
A: three times higher

Q: With CNC1(c2ccccc2Cl)CCCCC1=O (centres unmarked) [ketamine] as the compound, how does the “reduction of acute musculoskeletal pain” value ([1]; listed as intranasal (nebulized) ketamine) read?
A: about 4 points

Q: And the “time of peak pain reduction effect” value [4]?
A: about 5 mins

Q: What about the “serum peak concentration later than directly absorbed ketamine” value [5] of the same compound?
A: 15 to 20 min

Q: What about the elimination half-life ([3]; in vivo) of the same compound?
A: 2 to 3 h

Q: And the “bioavailability, intramuscular injection” value ([3]; intramuscular)?
A: about 93%

Q: What about the “bioavailability, IV” value ([3]; intravenous) of the same compound?
A: about 100%

Q: What about the “time to maximal concentrations, orally” value ([3]; oral) of the same compound?
A: 30 min

Q: And the “bioavailability, oral route” value ([3]; oral, listed as oral ketamine)?
A: 18-20%

Q: And the “stability in spray coating solvent” value [6]?
A: reacted with alcohol solvents leading to impurities

Q: For N[C@@H]1c2cccnc2[C@H](OC(=O)N2CCC(n3c(=O)[nH]c4ncccc43)CC2)CC[C@H]1c1cccc(F)c1F [rimegepant], which absolute oral bioavailability ([7]; in vivo, po) is on record?
A: approximately 64%

Q: And the “eliminated in unchanged form” value ([7]; in vivo)?
A: ~77 % of the dose

Q: What about the “time of maximum concentration” value ([7]; oral administration of NURTEC Orally Disintegrating Tablet) of the same compound?
A: 1.5 h

Q: Which “reduction of acute musculoskeletal pain” value [1] does the source give for CN1CC[C@]23c4c5ccc(O)c4O[C@H]2[C@@H](O)C=C[C@H]3[C@H]1C5 [IV morphine, Morphine] here?
A: 5.1 points

Q: For CC(C)Cc1ccc(C(C)C(=O)O)cc1 (centres unmarked) [oral ibuprofen, Ibuprofen], which “reduction of acute musculoskeletal pain” value [1] is on record?
A: 2 points
